{"source": "patent US12241902B2", "about": "“Probes for detection of copper” (The Regents of the University of California, priority 2019, dated 2025)", "experiment": "Oxidation state specificity of the ratiometric response", "experimental": "(A) Changes in corrected emission spectra of FCP-1 (5 μM) in aqueous buffer solution. […] (B) Corrected emission spectra of FCP-1 measured at various concentrations. […] (D) Changes in F526/F576 ratio of FCP-1 (5 μM) towards various biologically relevant metal ions, as well as cobalt(II)-containing vitamin B12. Black bars represent the ratiometric emission response observed upon addition of competing metal ions (1 mM for Na^+, K^+, Mg^2+ and Ca^2+, and 10 μM for all the other d-block metal ions as well vitamin B12) after 15 min. Red bars represent the ratiometric emission response upon subsequent addition of 10 μM of Cu(I) after 15 min. (E) Emission spectra and (F) F526/F576 emission ratio of FCP-1 (5 μM) with addition of Cu(II) (10 μM), Cu(II) (10 μM)+GSH (2 mM), or Cu(I) (10 μM)+GSH (2 mM) after 15 min. All spectra were acquired in aqueous buffer (PBS with 2 mM GSH and 40 vol % PEG-400) with λex=458 nm.\nUV-vis absorption and emission measurements. FCP-1 stock solution in DMSO (5 mM) was prepared, aliquoted and stored at […]. For each spectroscopic measurement, a fresh aliquot was diluted to 500 μM by DMSO and further diluted with PBS containing 2 mM GSH/PEG-400 mixture (3:2, v/v) to prepare the sensing solution with 5 μM of FCP-1. […] Photoluminescence quantum yield (PLQY) was determined using fluorescein in 0.1 M NaOH solution (0.95; λex=496 nm). […]", "data": [{"smiles": "CC[N+](CC)=c1ccc2c(-c3ccccc3C(=O)O)c3ccc(N4CCN(Cc5cccc(CN(Cc6ccccn6)Cc6cccc(COc7ccc8c(-c9ccccc9C(=O)OC)c9ccc(=O)cc-9oc8c7)n6)n5)CC4)cc3oc-2c1", "note": "[FCP-1]", "values": [{"measurement": "emission spectra and F526/F576 ratio with Cu(II) and excess glutathione", "setting": "Cu(II) 10 μM + GSH 2 mM, compared with Cu(I) 10 μM + GSH 2 mM", "value": "identical to that obtained by treating FCP-1 with Cu(I) and excess glutathione"}, {"measurement": "ratiometric response to Cu(II)", "setting": "Cu(II) 10 μM, 15 min", "value": "does not respond ratiometrically"}]}]}
